# Experiments:
# beta-3 adrenoceptor [1] = biological target: T1, beta-3 adrenoceptor (Rattus norvegicus, UniProt P26255); experiment: Receptor desensitization: CCRC after incubation with the EC90 concentration and PSS washout, EFS-stimulated rat bladder strips; assay type: cell-based
# T1 construct: The bladder longitudinal smooth muscle, with the urothelium still attached were mounted in 25 ml organ baths; from tissue; host or cells: isolated bladder longitudinal smooth muscle strips (urothelium attached) from male CD rats
# Procedure: (§1) Macroscopically normal bladders obtained from Male CD rats (220-250 g) were used. […] Each bladder was cleaned free of surrounding connective tissue and halved longitudinally. The bladder longitudinal smooth muscle, with the urothelium still attached were mounted in 25 ml organ baths containing physiological saline solution (PSS) (composition: 119.0 mM NaCl, 4.7 mM KCl, 1.2 mM MgSO4, 24.9 mM NaHCO3, 1.2 mM KH2PO4, 2.5 mM CaCl2 and 11.1 mM glucose) supplemented with 1 μM prazosin (α1-adrenoceptor antagonist) and 30 nM ICI118551 (β2-adrenoceptor antagonist), aerated with 95% O2/5% CO2 gas mix, warmed and maintained at approximately 37° C. throughout the experiment. Changes in force production were recorded using transducers. After mounting, the bladder halves were allowed to equilibrate for at least 30 min before they were set to a stable tension of approximately 1.0 g. The tissue was then allowed to equilibrate over at least a 60 min period with washes every 15 min.
# In initial experiments the parameters for the EFS were assessed by performing a frequency curve to determine a frequency that would give a response that was approximately 80% of the response seen to 80 mM KCl. Optimal EFS parameters were determined to be: 30 Volts, square pulse of 0.1 ms, train of 4 seconds every 120 seconds, 15 Hz. This frequency was then used to stimulate the tissue for all subsequent experiments. The viability of bladder strips was tested by stimulating the tissue with EFS for minimum of ten minutes.
# The bladder muscle strips were incubated with the EC90 determined for each test compound in the pilot studies, for a period of 1 or 3 hr. Following compound incubation, the tissues were washed with PSS for a period of 1, 3 or 6 hr, with washes approximately every 15 min, to remove the drug. At the end of the final wash period the tissues were stimulated with EFS, and left to equilibrate for at least 30 min. A CCRC was then performed in each tissue. Tissue responses were calculated as the mean (SEM) and expressed as percentage of EFS induced tone.
# Tissues were incubated with the EC90 concentration of the test compounds for one hr followed by one hr, three hr or six hr of washing with PSS. […] This EFS-induced potentiation of bladder contraction from baseline was not observed with solabegron.
# In the next series of experiments, tissues were incubated with the EC90 concentration of the test compounds for three hr followed by either one hr, three hr or six hr of washing with PSS.
# beta-3 adrenoceptor [2] = biological target: T1, beta-3 adrenoceptor; experiment: Determination of EC90 concentration to inhibit EFS-induced contraction in rat isolated bladder (pilot CCRC); assay type: cell-based; conditions: PSS with 1 μM prazosin and 30 nM ICI118551, EFS 15 Hz
# Procedure: as §1, with “After mounting, the bladder halves were allowed to equilibrate for at least 30 min before they were set to a stable tension of approximately 1.0 g. The tissue was then allowed to equilibrate over at least a 60 min period with washes every 15 min.” left out
# In initial experiments the parameters for the EFS were assessed by performing a frequency curve to determine a frequency that would give a response that was approximately 80% of the response seen to 80 mM KCl. Optimal EFS parameters were determined to be: 30 Volts, square pulse of 0.1 ms, train of 4 seconds every 120 seconds, 15 Hz. […]
# Pilot studies to determine EC90 concentrations of the test compounds were performed. […] From the data obtained in these experiments, EC90 concentrations of the test compounds were determined for use in subsequent experiments. […]
# [3] = women with moderate to severe OAB; cited from earlier work
# [4] = Absorption of solabegron in regions of the GI tract; assay type: in vivo; conditions: solabegron and pharmaceutical salts thereof
# Description: (§2) For example, some compounds are differentially absorbed in different regions of the GI tract. […] Under these improved conditions, a second release of solabegron and absorption will result. Additionally, methods for the release of solabegron in the distal GI tract based on pH are presented herein.
# [5] = pH-dependent solubility of solabegron; assay type: physicochemical
# Description: as §2
# [6] = three hr incubation with EC90 concentration, one hr of washing
# T1 sequence (P26255 whole entry): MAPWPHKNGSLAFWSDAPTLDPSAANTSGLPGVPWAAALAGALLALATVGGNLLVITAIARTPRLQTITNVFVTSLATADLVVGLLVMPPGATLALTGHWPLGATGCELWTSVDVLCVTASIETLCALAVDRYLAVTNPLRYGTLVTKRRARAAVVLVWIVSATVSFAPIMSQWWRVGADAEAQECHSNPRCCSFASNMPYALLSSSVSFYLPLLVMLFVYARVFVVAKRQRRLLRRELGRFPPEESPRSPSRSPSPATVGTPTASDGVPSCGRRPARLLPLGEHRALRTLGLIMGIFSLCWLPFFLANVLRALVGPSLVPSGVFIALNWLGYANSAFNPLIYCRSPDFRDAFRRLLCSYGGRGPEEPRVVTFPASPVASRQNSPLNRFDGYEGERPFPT
Compound,"Response to agonist (CCRC, reduction of EFS-induced tone) versus vehicle-incubated tissue (beta-3 adrenoceptor [1]; [6])",EC90 (beta-3 adrenoceptor [2]) [µM],"Response to agonist (CCRC, reduction of EFS-induced tone) versus vehicle-incubated tissue (beta-3 adrenoceptor [1]; one hr incubation with EC90 concentration, one hr of washing)","Response to agonist (CCRC, reduction of EFS-induced tone) versus vehicle-incubated tissue (beta-3 adrenoceptor [1]; one hr incubation with EC90 concentration, three hr of washing, higher concentrations)","Response to agonist (CCRC, reduction of EFS-induced tone) versus vehicle-incubated tissue (beta-3 adrenoceptor [1]; three hr incubation with EC90 concentration, three hr of washing, highest concentrations)",Effect on symptoms of overactive bladder [3],"Safety, tolerability, adverse events compared to placebo [3]",Absorption in the GI tract [4],Solubility [5]
"C[C@H](Cc1ccc2c(c1)OC(C(=O)[O-])(C(=O)[O-])O2)NC[C@H](O)c1cccc(Cl)c1.[Na+].[Na+] [CL-316,243, reference compound]",significantly attenuated,0.042,,,,,,,
"O=C(O)c1cccc(-c2cccc(NCCNC[C@H](O)c3cccc(Cl)c3)c2)c1 [solabegron, 3′-[(2-{[(2R)-2-(3-chlorophenyl)-2-hydroxyethyl]amino}ethyl)amino]biphenyl-3-carboxylic acid]",significantly attenuated,1,significantly attenuated,significantly attenuated,significantly attenuated,significantly reduce the symptoms of overactive bladder,"safe, well-tolerated, and does not demonstrate significant differences in adverse events as compared to placebo",optimum absorption in the proximal GI tract,pH-dependent solubility

# — patent US10751311B2, “Compositions and methods of using modified release solabegron for lower urinary tract symptoms” (VELICEPT THERAPEUTICS, INC., priority 2014, dated 2020)
